Results published in patent US5134137A, “Cephalosporin antibiotics” (The Upjohn Company, priority 1990, dated 1992).
In brackets after ≈: the same amount, converted by molar mass. Like-named read-outs stand apart in the source and are kept apart here.

Legend:
Assay type in all cases: cell-based
[1] = tested on: Streptococcus bovis; test: MIC, agar dilution, Streptococcus bovis; conditions: Streptococcus equinus; strain UC6281; read-out: MIC
Method: (§1) Stock solution of each test antibiotic compound were prepared to have a concentration of 2 mg. of the test compound per milliliter in sterile water of 0.1M ammonium acetate solution. The amount of each compound used was adjusted for base compound activity as calculated from the purity data for the selected batch of compound.
(§2) The dilution procedure described by Washington and Sutter [Manual of Clinical Microbiology, 3rd, Edit. (Lennett, E. H. et al, Eds.), pp. 453-458 (1980), American Society for Microbiology, Washington, D.C.] was modified so that serial concentrations of 128 to 0.0625 microgram/ml. in sterile water was obtained. Then 1.5 ml. aliquots of these test antibiotic dilution mixtures are added to 13.5 molten (50° C.) Mueller-Hinton agar. Each resulting mixture is poured into 15×100 mm, sterile Petri plates and allowed to dry at room temperature overnight.
(§3) Test bacterial cultures are maintained at -70° C. on glass beads. [See R. J. Yancey, Jr. et al, Amer. Jr. of Vet. Research, 48, No. 7, pp. 1050-1053, (1987)]. At least one bacteria-laden bead per culture is dropped into one ml. of brain heart infusion (BHI) broth for overnight culture at 37° C. in 5% V/V carbon dioxide in air atmosphere.
(§4) On the data of assay, 2 to 8 drops of the bacterial broth cultures are transferred to fresh BHI broth (1 ml.) and the mixture is incubated for 4 to 6 hours at 37° C. in a 5% V/V carbon dioxide in air atmosphere. The resulting cultures are then diluted to match a 0.5 MacFarland standard and further diluted 1:20 V/V with sterile saline solution.
(§5) A 0.001 ml. drop of the resulting mixture, containing approximately 10^3 to 10^4 colony forming units (CFU) of each test bacteria organism, is dispensed onto the surface of the test antibiotic compound test plates with a Steer's type replicator. The resulting innoculated plates are incubated 16 to 18 hours at 37° C. with a carbon dioxide atmosphere.
as §1, with “Stock solutions” for “Stock solution”
as §2, with “mm.” for “mm,”
as §2, with “for Microbiology.” for “for Microbiology,”, “15×100 mm.” for “15×100 mm,”
as §3, with “culture” for “cultures”
(§6) On the day of assay, 2 to 8 drops of the bacterial broth cultures are transferred to fresh BHI broth (1 ml.) and the mixture is incubated for 4 to 6 hours at 37° C. in a 5% V/V carbon dioxide in air atmosphere. […]

[2] = tested on: Streptococcus dysgalactiae; test: MIC, agar dilution, Streptococcus dysgalactiae; conditions: Streptococcus dysgalactiae; strain UC251; read-out: MIC
Method: as §1, §2, §3, §4, §5
as §1, with “Stock solutions” for “Stock solution”
as §2, with “mm.” for “mm,”
as §2, with “for Microbiology.” for “for Microbiology,”, “15×100 mm.” for “15×100 mm,”
as §3, with “culture” for “cultures”
as §6

[3] = tested on: Micrococcus luteus; test: MIC, agar dilution, Micrococcus luteus; conditions: Micrococcus luteus; strain UC130; read-out: MIC
Method: as §1, §2, §3, §4, §5
as §1, with “Stock solutions” for “Stock solution”
as §2, with “mm.” for “mm,”
as §2, with “for Microbiology.” for “for Microbiology,”, “15×100 mm.” for “15×100 mm,”
as §3, with “culture” for “cultures”
as §6

[4] = tested on: Enterococcus faecium; test: MIC, agar dilution, Enterococcus faecium; conditions: Enterococcus faecium; strain UC241; read-out: MIC
Method: as §1, with “Stock solutions” for “Stock solution”
as §2, §3, §4, §5, §1
as §2, with “mm.” for “mm,”
as §2, with “for Microbiology.” for “for Microbiology,”, “15×100 mm.” for “15×100 mm,”
as §3, with “culture” for “cultures”
as §6

[5] = tested on: Escherichia coli; test: MIC, agar dilution, Escherichia coli; conditions: Escherichia coli, read-out: MIC
Method: as §1, §2, §3, §4, §5
as §1, with “Stock solutions” for “Stock solution”
as §2, with “mm.” for “mm,”
as §2, with “for Microbiology.” for “for Microbiology,”, “15×100 mm.” for “15×100 mm,”
as §3, with “culture” for “cultures”
as §6

[6] = tested on: Streptococcus agalactiae; test: MIC, agar dilution, Streptococcus agalactiae; conditions: Streptococcus agalactiae, read-out: MIC
Method: as §1, §2, §3, §4, §5
as §1, with “Stock solutions” for “Stock solution”
as §2, with “mm.” for “mm,”
as §2, with “for Microbiology.” for “for Microbiology,”, “15×100 mm.” for “15×100 mm,”
as §3, with “culture” for “cultures”
as §6

[7] = tested on: Streptococcus uberis; test: MIC, agar dilution, Streptococcus uberis; conditions: Streptococcus uberis, read-out: MIC
Method: as §1, §2, §3, §4, §5
as §1, with “Stock solutions” for “Stock solution”
as §2, with “mm.” for “mm,”
as §2, with “for Microbiology.” for “for Microbiology,”, “15×100 mm.” for “15×100 mm,”
as §3, with “culture” for “cultures”
as §6

[8] = tested on: Pseudomonas aeruginosa; test: MIC, agar dilution, Pseudomonas aeruginosa; conditions: Pseudomonas aeruginosa, ATCC27853; strain ATCC 27853; read-out: MIC
Method: as §1, §2, §3, §4, §5
as §1, with “Stock solutions” for “Stock solution”
as §2, with “mm.” for “mm,”
as §2, with “for Microbiology.” for “for Microbiology,”, “15×100 mm.” for “15×100 mm,”
as §3, with “culture” for “cultures”
as §6

[9] = tested on: Pasteurella hemolytica; test: MIC (minimum inhibitory concentration), agar dilution, Pasteurella hemolytica; conditions: Pasteurella, read-out: MIC
Method: as §1, §2, §3, §4, §5
as §1, with “Stock solutions” for “Stock solution”
as §2, with “mm.” for “mm,”
as §2, with “for Microbiology.” for “for Microbiology,”, “15×100 mm.” for “15×100 mm,”
as §3, with “culture” for “cultures”
as §6

[10] = tested on: Staphylococcus aureus; test: MIC, agar dilution, Staphylococcus aureus; conditions: Staphylococcus aureus, read-out: MIC
Method: as §1, §2, §3, §4, §5
as §1, with “Stock solutions” for “Stock solution”
as §2, with “mm.” for “mm,”
as §2, with “for Microbiology.” for “for Microbiology,”, “15×100 mm.” for “15×100 mm,”
as §3, with “culture” for “cultures”
as §6

[11] = tested on: Salmonella typhimurium; test: MIC, agar dilution, Salmonella typhimurium; conditions: Salmonella enterica, read-out: MIC
Method: as §1, §2, §3, §4, §5
as §1, with “Stock solutions” for “Stock solution”
as §2, with “mm.” for “mm,”
as §2, with “for Microbiology.” for “for Microbiology,”, “15×100 mm.” for “15×100 mm,”
as §3, with “culture” for “cultures”
as §6

[12] = tested on: Corynebacterium pyogenes; test: MIC, agar dilution, Corynebacterium pyogenes; conditions: strain 213-2; read-out: MIC
Method: as §1, §2, §3, §4, §5
as §1, with “Stock solutions” for “Stock solution”
as §2, with “mm.” for “mm,”
as §2, with “for Microbiology.” for “for Microbiology,”, “15×100 mm.” for “15×100 mm,”
as §3, with “culture” for “cultures”
as §6

[13] = tested on: Pasteurella multocida; test: MIC, agar dilution, Pasteurella multocida; conditions: Pasteurella multocida; strain UC9581; read-out: MIC
Method: as §1, §2, §3, §4, §5
as §1, with “Stock solutions” for “Stock solution”
as §2, with “mm.” for “mm,”
as §2, with “for Microbiology.” for “for Microbiology,”, “15×100 mm.” for “15×100 mm,”
as §3, with “culture” for “cultures”
as §6

[14] = tested on: Streptococcus suis; test: MIC, agar dilution, Streptococcus suis; conditions: Streptococcus suis; strain 650-2; read-out: MIC
Method: as §1, §2, §3, §4, §5
as §1, with “Stock solutions” for “Stock solution”
as §2, with “mm.” for “mm,”
as §2, with “for Microbiology.” for “for Microbiology,”, “15×100 mm.” for “15×100 mm,”
as §3, with “culture” for “cultures”
as §6

[15] = tested on: Salmonella choleraesuis; test: MIC, agar dilution, Salmonella choleraesuis; conditions: Salmonella enterica, read-out: MIC
Method: as §1, §2, §3, §4, §5
as §1, with “Stock solutions” for “Stock solution”
as §2, with “mm.” for “mm,”
as §2, with “for Microbiology.” for “for Microbiology,”, “15×100 mm.” for “15×100 mm,”
as §3, with “culture” for “cultures”
as §6

[16] = tested on: Bordetella bronchiseptica; test: MIC, agar dilution, Bordetella bronchiseptica; conditions: Bordetella bronchiseptica; strain UC6313; read-out: MIC
Method: as §1, §2, §3, §4, §5
as §1, with “Stock solutions” for “Stock solution”
as §2, with “mm.” for “mm,”
as §2, with “for Microbiology.” for “for Microbiology,”, “15×100 mm.” for “15×100 mm,”
as §3, with “culture” for “cultures”
as §6

[17] = tested on: Enterococcus faecalis; test: MIC, agar dilution, Enterococcus faecalis; conditions: Enterococcus faecalis; strain UC694; read-out: MIC
Method: as §1, with “Stock solutions” for “Stock solution”
as §2, §3, §4, §5, §1
as §2, with “mm.” for “mm,”
as §2, with “for Microbiology.” for “for Microbiology,”, “15×100 mm.” for “15×100 mm,”
as §3, with “culture” for “cultures”
as §6

[18] = TYPHIMURIUM / UC6162, strain UC6162
[19] = TYPHIMURIUM / UC6164, strain UC6164
[20] = CHOLERAESUIS / UC6073, strain UC6073
[21] = CHOLERAESUIS / UC6077, strain UC6077

MIC [1] [µg/mL]	MIC [2] [µg/mL]	MIC [3] [µg/mL]	MIC [4] [µg/mL]	MIC ([5]; strain UC3784) [µg/mL]	MIC ([5]; strain UC6720) [µg/mL]	MIC ([5]; strain UC9670) [µg/mL]	MIC ([6]; strain UC6892) [µg/mL]	MIC ([7]; strain UC3946) [µg/mL]	MIC ([7]; strain UC6159) [µg/mL]	MIC [8] [µg/mL]	MIC ([10]; strain UC6093) [µg/mL]	MIC ([10]; strain UC6097) [µg/mL]	MIC ([10]; strain UC9203) [µg/mL]	MIC [11, 18] [µg/mL]	MIC [11, 19] [µg/mL]	MIC [12] [µg/mL]	SMILES	MIC ([9]; strain UC6531) [µg/mL]	MIC ([9]; strain UC6532) [µg/mL]	MIC ([9]; strain UC9582) [µg/mL]	also measured
≤ 0.06	≤ 0.06	≤ 0.06	> 32	8 (≈ 14.5 µM)	16 (≈ 29 µM)	8 (≈ 14.5 µM)	≤ 0.06	≤ 0.06	8 (≈ 14.5 µM)	> 32	1 (≈ 1.81 µM)	1 (≈ 1.81 µM)	1 (≈ 1.81 µM)	16 (≈ 29 µM)	16 (≈ 29 µM)	0.25 (≈ 0.453 µM)	CO/N=C(\C(=O)N[C@@H]1C(=O)N2C(C(=O)O)=C(CSSCc3ccccc3)CS[C@H]12)c1csc(N)n1 [Example 14]	0.5 (≈ 0.906 µM)	0.25 (≈ 0.453 µM)	2 (≈ 3.63 µM)	MIC [13]: 2 µg/mL (≈ 3.63 µM); MIC [14]: ≤ 0.06 µg/mL; MIC [15, 20]: 16 µg/mL (≈ 29 µM); MIC [15, 21]: 32 µg/mL (≈ 58 µM); MIC [16]: > 32 µg/mL; MIC [17]: > 32 µg/mL
≤ 0.06	≤ 0.06	≤ 0.06	> 32	4 (≈ 7.36 µM)	8 (≈ 14.7 µM)	4 (≈ 7.36 µM)	≤ 0.06	0.13 (≈ 0.239 µM)	8 (≈ 14.7 µM)	> 32	1 (≈ 1.84 µM)	1 (≈ 1.84 µM)	1 (≈ 1.84 µM)	16 (≈ 29.4 µM)	16 (≈ 29.4 µM)	0.5 (≈ 0.92 µM)	CO/N=C(\C(=O)N[C@@H]1C(=O)N2C(C(=O)O)=C(CSSC3CCCCC3)CS[C@H]12)c1csc(N)n1 [Example 19]	0.5 (≈ 0.92 µM)	0.5 (≈ 0.92 µM)	0.25 (≈ 0.46 µM)	MIC ([6]; strain UC3947): ≤ 0.06 µg/mL; MIC [13]: ≤ 0.06 µg/mL; MIC [14]: ≤ 0.06 µg/mL; MIC [15, 20]: 8 µg/mL (≈ 14.7 µM); MIC [15, 21]: 16 µg/mL (≈ 29.4 µM); MIC [16]: > 32 µg/mL; MIC [17]: > 32 µg/mL
> 32	≤ 0.06	0.5 (≈ 0.993 µM)	> 32	16 (≈ 31.8 µM)	32 (≈ 63.5 µM)	16 (≈ 31.8 µM)	> 32	0.25 (≈ 0.496 µM)	16 (≈ 31.8 µM)	> 32	8 (≈ 15.9 µM)	8 (≈ 15.9 µM)	8 (≈ 15.9 µM)	16 (≈ 31.8 µM)	32 (≈ 63.5 µM)	> 32	CCCSSCC1=C(C(=O)O)N2C(=O)[C@@H](NC(=O)/C(=N\OC)c3csc(N)n3)[C@H]2SC1 [Example 11]	0.5 (≈ 0.993 µM)	0.5 (≈ 0.993 µM)	0.5 (≈ 0.993 µM)	MIC ([6]; strain UC3947): 2 µg/mL (≈ 3.97 µM); MIC [13]: 32 µg/mL (≈ 63.5 µM); MIC [14]: ≤ 0.06 µg/mL; MIC [15, 20]: 32 µg/mL (≈ 63.5 µM); MIC [15, 21]: > 32 µg/mL; MIC [16]: 32 µg/mL (≈ 63.5 µM); MIC [17]: > 32 µg/mL
